From patent publication US8318793B2, “Heterocyclic compounds and their use as glycogen synthase kinase-3 inhibitors” (Abbott GmbH & Co. KG, priority 2009, dated 2012)

target: T1, human Glycogen Synthase Kinase-3 beta (hGSK-3β) (Homo sapiens, UniProt P49841); experiment: Biochemical hGSK-3beta assay (33P-ATP phosphorylation of biotinylated peptide substrate); details: 10 μM ATP, 30 minutes at room temperature; read-out: GSK-3β IC50
T1 construct: purchased Upstate cell signaling solutions
Experimental: Methods—Biochemical hGSK-3beta Assay
Compounds were tested for their ability to inhibit human Glycogen Synthase Kinase-3 beta (hGSK-3β) to phosphorylate biotin-[…](pS)EDEEE. Compounds were incubated with 0.5 μCi 33P-ATP, 10 μM ATP, 0.0125U hGSK-3β (Upstate cell signaling solutions) and 1 μM substrate (biotin-[…](pS)EDEEE) in 50 mM HEPES, 10 mM MgCl2, […], 1 mM DTT, 0.0075% Triton, 2% DMSO (total volume 50 μL) for 30 minutes at room temperature. The incubation was stopped by addition of an equal volume of 100 mM EDTA, 4M NaCl. 80 μL of this mixture was added to streptavidin-coated Flashplates (PerkinElmer). Following a wash step, 33P incorporation was quantified on a MicroBeta microplate liquid scintillation counter (PerkinElmer). IC50's were determined by fitting a sigmoidal dose-response curve to the counts obtained at the different concentrations in GraphPad Prism.

T1 sequence (P49841 whole entry): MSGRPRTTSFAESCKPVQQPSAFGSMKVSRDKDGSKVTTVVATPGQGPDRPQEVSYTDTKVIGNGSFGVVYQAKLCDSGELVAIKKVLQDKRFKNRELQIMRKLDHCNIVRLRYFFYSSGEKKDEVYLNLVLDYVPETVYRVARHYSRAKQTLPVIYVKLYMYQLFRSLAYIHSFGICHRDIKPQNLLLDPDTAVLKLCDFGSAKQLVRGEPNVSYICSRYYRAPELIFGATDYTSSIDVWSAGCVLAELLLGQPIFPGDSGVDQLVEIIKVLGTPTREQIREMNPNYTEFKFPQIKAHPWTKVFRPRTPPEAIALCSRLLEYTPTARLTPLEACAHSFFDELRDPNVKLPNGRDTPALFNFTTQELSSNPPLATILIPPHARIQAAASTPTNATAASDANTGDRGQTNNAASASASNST

| SMILES | IC50 [µM] |
| --- | --- |
| Oc1[nH]c2ccc(Br)nc2c1-c1ccc(CN2CCOCC2)cn1 [Example 4, 5-Bromo-3-(5-(morpholinomethyl)-pyridin-2-yl)-1H-pyrrolo[3,2-b]pyridin-2-ol] | < 0.1 |
| [O-][n+]1cc(CN2CCOCC2)ccc1-c1c(O)[nH]c2ccc(Br)nc12 [Example 4.1, 2-(5-Bromo-2-hydroxy-1H-pyrrolo[3,2-b]pyridin-3-yl)-5-(morpholinomethyl)-pyridine 1-oxide] | 0.1 to 10 |
| Oc1[nH]c2cnccc2c1-c1ccc(CN2CCOCC2)cn1 [Example 3, 3-(5-(Morpholinomethyl)-pyridin-2-yl)-1H-pyrrolo[2,3-c]pyridin-2-ol] | 0.1 to 10 |

Now from value to molecule:

| IC50 [µM] | SMILES |
| --- | --- |
| < 0.1 | N#Cc1ccc2[nH]c(O)c(-c3ccc(CN4CC5COCC5C4)cn3)c2c1 (stereo not drawn) [Example 1, 3-(5-((Dihydro-1H-furo[3,4-c]pyrrol-5(3H,6H,6aH)-yl)methyl)pyridin-2-yl)-2-hydroxy-1H-indole-5-carbonitrile] |
| 10 to 100 | Oc1[nH]c2ncccc2c1-c1ccc(CN2CCOCC2)cn1 [Example 2, 3-(5-(Morpholinomethyl)-pyridin-2-yl)-1H-pyrrolo[2,3-b]pyridin-2-ol] |
| < 0.1 | N#Cc1ccc2[nH]c(O)c(-c3ccc(CN4CC[C@H]5CNC[C@H]54)cn3)c2c1 (stereo in doubt) [Example 5, 3-(5-(((3aS,6aS)-Hexahydropyrrolo[3,4-b]pyrrol-1(2H)-yl)methyl)-pyridin-2-yl)-2-hydroxy-1H-indole-5-carbonitrile] |
